# Measured values: patent publication US20150272939A1, “Identification of Small Molecule Inhibitors of Jumonji AT-Rich Interactive Domain 1A (JARID1A) and 1B (JARID1B) Histone Demethylase” (Yale University, priority 2012, published 2015)
# Counter-ions that a name gives are not always drawn. Like-named read-outs stand apart in the source and are kept apart here.
# Assays:
# [1] = AlphaScreen counterscreen against bio-H3K4me2 peptide in the absence of enzyme (artifact signal); conditions: for Artifact Signal (percent): effect of the compound when incubated with bio-H3K4me2 peptide (counterscreen, no enzyme);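 for all read-outs here: counterscreen run without enzyme against bio-H3K4me2 peptide to remove false positive hits from the JARID1 demethylase AlphaScreen screen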
# JARID1B = target: T1, JARID1B (Homo sapiens, UniProt Q9UGL1); experiment: FLAG-JARID1B histone demethylase assay with AlphaScreen detection (HTS and dose response); type: biochemical; conditions: for inhibition at 20 µM: read-out: Inhibitory effect (percent); for Assay − Artifact Signal (percent): assay signal minus artifact signal; for Assay Signal (percent): effect of compound in JARID1B AlphaScreen assay;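 for Assay Signal (percent): compound tested at 20 µM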;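 for Assay − Artifact Signal (percent): compound tested at 20 µM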;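 for all read-outs here: FLAG-tagged JARID1B at 4 nM acting on a biotinylated H3K4me3 peptide, demethylation read by AlphaScreen luminescence, with hits checked against bio-H3K4me2 without enzyme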
# T1 construct: The FLAG tagged full length JARID1B enzyme was expressed in Sf21 insect cells using FLAG-JARID1B baculoviruses; FLAG (N); made in house; host or cells: Sf21 insect cells (baculovirus)
# T1 sequence (Q9UGL1 whole entry): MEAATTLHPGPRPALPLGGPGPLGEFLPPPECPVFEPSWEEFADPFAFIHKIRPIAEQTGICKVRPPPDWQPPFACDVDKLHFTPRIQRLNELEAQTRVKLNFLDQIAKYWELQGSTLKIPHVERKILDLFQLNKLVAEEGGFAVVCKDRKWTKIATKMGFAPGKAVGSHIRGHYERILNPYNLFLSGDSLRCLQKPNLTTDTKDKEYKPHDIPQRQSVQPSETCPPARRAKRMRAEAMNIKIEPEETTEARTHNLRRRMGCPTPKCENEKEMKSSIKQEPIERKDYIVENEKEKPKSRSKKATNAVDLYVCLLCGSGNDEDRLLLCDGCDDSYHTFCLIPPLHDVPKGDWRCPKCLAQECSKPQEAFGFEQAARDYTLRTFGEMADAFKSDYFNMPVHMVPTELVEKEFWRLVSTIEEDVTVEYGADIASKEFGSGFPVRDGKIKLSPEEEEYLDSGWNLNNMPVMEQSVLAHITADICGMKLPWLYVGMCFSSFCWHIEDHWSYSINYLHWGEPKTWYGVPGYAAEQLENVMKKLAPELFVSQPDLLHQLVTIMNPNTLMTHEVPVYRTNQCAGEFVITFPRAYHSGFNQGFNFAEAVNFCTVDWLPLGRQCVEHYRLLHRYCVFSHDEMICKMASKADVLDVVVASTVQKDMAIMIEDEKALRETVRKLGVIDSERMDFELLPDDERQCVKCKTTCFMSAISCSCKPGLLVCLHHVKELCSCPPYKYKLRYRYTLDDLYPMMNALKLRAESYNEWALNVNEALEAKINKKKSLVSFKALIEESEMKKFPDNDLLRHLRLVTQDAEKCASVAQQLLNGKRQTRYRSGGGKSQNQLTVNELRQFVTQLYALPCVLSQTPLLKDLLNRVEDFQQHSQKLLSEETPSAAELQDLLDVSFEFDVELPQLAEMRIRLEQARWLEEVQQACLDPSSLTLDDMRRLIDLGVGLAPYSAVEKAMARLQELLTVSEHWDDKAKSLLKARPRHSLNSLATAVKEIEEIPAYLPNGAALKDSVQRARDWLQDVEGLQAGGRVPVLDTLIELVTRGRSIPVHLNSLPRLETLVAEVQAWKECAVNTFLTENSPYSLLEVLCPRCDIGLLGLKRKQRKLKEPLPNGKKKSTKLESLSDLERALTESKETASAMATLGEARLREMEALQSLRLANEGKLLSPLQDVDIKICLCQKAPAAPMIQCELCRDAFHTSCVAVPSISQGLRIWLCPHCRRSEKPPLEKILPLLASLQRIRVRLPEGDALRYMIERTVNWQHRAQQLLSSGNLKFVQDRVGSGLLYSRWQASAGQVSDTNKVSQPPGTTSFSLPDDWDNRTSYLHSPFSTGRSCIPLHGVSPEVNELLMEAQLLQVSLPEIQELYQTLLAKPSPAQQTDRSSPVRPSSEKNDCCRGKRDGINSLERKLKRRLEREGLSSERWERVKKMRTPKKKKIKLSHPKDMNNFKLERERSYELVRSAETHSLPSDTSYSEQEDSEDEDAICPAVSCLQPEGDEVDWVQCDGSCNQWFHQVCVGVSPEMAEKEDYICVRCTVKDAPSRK
# [2] = counterscreen, bio-H3K4me2 peptide, no enzyme
# [3] = high-throughput screen, compound 20 μM, standard demethylase conditions (10 μM α-KG, 50 μM Fe (II))
# [4] = validation of HTS actives, total signal before subtraction of artifact signal
# [5] = high-throughput screen, compound 20 μM, IDs marked *: additional hits under reaction condition with 1 mM α-KG
"Artifact signal: effect of the compound when it is incubated with bio-H3K4me2 peptide [1, 2]",inhibition at 20 µM (JARID1B; [3]) [%],Validation result of HTS active: effect of the compound in the JARID1B AlphaScreen demethylase assay (JARID1B; [4]),Artifact Signal (percent) [1] [%],Assay − Artifact Signal (percent) (JARID1B) [%],Assay Signal (percent) (JARID1B; validation of HTS actives) [%],SMILES,also measured
−4.67,–,−19.45,–,–,–,"CN[C@@H]1[C@H](O[C@H]2O[C@H](CO)[C@@H](N)[C@H](O)[C@H]2O)O[C@H]2C[C@@H](N)[C@H](O[C@@H]3[C@H](O)[C@@H](O)[C@H](N)C[C@@H]3N)O[C@@H]2[C@@H]1O (stereo in doubt) [YU155086, APRAMYCIN, reference compound]",inhibition at 20 µM (JARID1B; [5]): 43.2%
98.76,105,104.28,–,–,–,"O=C(O[C@@H]1Cc2c(O)cc(O)cc2O[C@@H]1c1cc(O)c(=O)c2c(O)c(O)cc([C@H]3Oc4cc(O)cc(O)c4C[C@H]3OC(=O)c3cc(O)c(O)c(O)c3)c2c1)c1cc(O)c(O)c(O)c1 (stereo in doubt) [YU155100, THEAFLAVIN DIGALLATE, reference compound]",–
68.65,60,72.27,–,–,–,"O=C(O)c1cc(O)c2c(c1)[C@@H]([C@H]1c3cc(C(=O)O)cc(O)c3C(=O)c3c(O[C@H]4O[C@H](CO)[C@@H](O)[C@H](O)[C@H]4O)cccc31)c1cccc(O[C@H]3O[C@H](CO)[C@@H](O)[C@H](O)[C@H]3O)c1C2=O (stereo in doubt) [YU155201, SENNOSIDE A, reference compound]",–
−0.34,105,4.04,–,–,–,"O=C(O)c1cc(O)c2c(c1)[C@H]([C@H]1c3cc(C(=O)O)cc(O)c3C(=O)c3c(O[C@@H]4O[C@H](CO)[C@H](O)[C@H](O)[C@H]4O)cccc31)c1cccc(O[C@@H]3O[C@H](CO)[C@H](O)[C@H](O)[C@@H]3O)c1C2=O (stereo in doubt) [YU155305, SENNOSIDE B, reference compound]",–
–,104,–,11.20,8.43,19.64,O=C(O)CC(CC(=O)Nc1cc(C(F)(F)F)ccc1N1CCOCC1)c1ccccc1 (centres unmarked) [YU016748],–
13.27,34.2,10.22,–,–,–,NS(=O)(=O)c1cccc(NC(=O)c2cccnc2Oc2ccccc2)c1 [YU016812],–
–,–,–,55.18,20.91,76.09,"O=C1c2ccccc2C(=O)c2c(NCCc3ccc(O)cc3)ccc(NCCc3ccc(O)cc3)c21 [YU019467, BML-266, reference compound]",inhibition at 20 µM (JARID1B; [5]): 42.1%
–,–,–,4.84,26.12,30.96,"Oc1cc(O)c2c(c1)O[C@H](c1ccc(O)c(O)c1)[C@@H](O)C2 [YU033631, CIANIDANOL, reference compound]",inhibition at 20 µM (JARID1B; [5]): 41.5%
–,65.8,–,5.37,52.71,58.08,"C[C@@H]1O[C@@H](OC[C@H]2OC(OC3=C(c4ccc(O)c(O)c4)Oc4cc(O)cc(O)c4C3O)[C@H](O)[C@@H](O)[C@@H]2O)[C@H](O)[C@H](O)[C@H]1O (some centres unmarked) [YU033654, RUTOSIDE (rutin), reference compound]",–
–,–,–,9.35,13.30,22.65,"O=C1c2c(O)cccc2Cc2cccc(O)c21 [YU033694, ANTHRALIN, reference compound]",inhibition at 20 µM (JARID1B; [5]): 51.7%
–,89.4,–,8.29,58.49,66.78,"CN1CCc2cccc3c2C1Cc1ccc(O)c(O)c1-3 (centres unmarked) [YU033696, APOMORPHINE HYDROCHLORIDE, reference compound]",–
5.31,88.8,10.40,–,–,–,"Cn1cnc([N+](=O)[O-])c1Sc1[nH]cnc2ncnc1-2 [YU033698, AZATHIOPRINE, reference compound]",–
–,70.6,–,21.46,52.50,73.96,"NC(CO)C(=O)NNCc1ccc(O)c(O)c1O (centres unmarked) [YU033702, BENSERAZIDE HYDROCHLORIDE, reference compound]",–
−3.70,–,0.82,–,–,–,"Oc1c(Cl)cc(Cl)cc1Sc1cc(Cl)cc(Cl)c1O [YU033712, BITHIONOL, reference compound]",inhibition at 20 µM (JARID1B; [5]): 47.6%
1.97,41,−1.12,–,–,–,"N=C(NCCCCCCNC(=N)NC(=N)Nc1ccc(Cl)cc1)NC(=N)Nc1ccc(Cl)cc1 [YU033734, CHLORHEXIDINE, reference compound]",–
–,–,–,0.43,27.81,28.24,"CN(C)[C@@H]1C(O)=C(C(N)=O)C(=O)[C@@]2(O)C(O)=C3C(=O)c4c(O)ccc(Cl)c4[C@@](C)(O)[C@H]3C[C@@H]12 [YU033743, AUREOMYCIN, reference compound]",inhibition at 20 µM (JARID1B; [5]): 90%
–,47,–,0.86,15.81,16.67,"CCN(CC)CCOc1ccc(/C(=C(\Cl)c2ccccc2)c2ccccc2)cc1 [YU033752, CLOMIPHENE CITRATE, reference compound]",–
–,–,–,–,–,–,"[O-][n+]1ccccc1[S-].[O-][n+]1ccccc1[S-].[Zn+2] [YU033800, PYRITHIONE ZINC, reference compound]",Artifact signal: effect of the compound when it is incubated with bio-H3K4me2 peptide [1]: −19.95; Inhibitory effect (percent) (JARID1B): 99.02%; Validation effect minus artifact signal (JARID1B): 1.60; Validation result of HTS active: effect of the compound in the JARID1B AlphaScreen demethylase assay (JARID1B): −18.35
−2.83,51.3,−1.42,10.00,32.68,42.68,"NCCc1ccc(O)c(O)c1 [YU033802, DOPAMINE HYDROCHLORIDE, reference compound]","Inhibitory effect (percent) (JARID1B; high-throughput screen, compound 20 μM, standard demethylase conditions (10 μM α-KG, 50 μM Fe (II)), HYDROCHLORIDE): 46.86%"
–,56.3,–,−6.64,47.54,40.90,"CNC[C@H](O)c1ccc(O)c(O)c1 [YU033809, ADRENALINE BITARTRATE, reference compound]",–
93.38,106,96.28,–,–,–,"CN(C)c1ccc(C(=C2C=CC(=[N+](C)C)C=C2)c2ccc(N(C)C)cc2)cc1 [YU033841, GENTIAN VIOLET, reference compound]",–
–,–,–,−8.00,21.20,13.20,"NC(=O)NO [YU033863, HYDROXYUREA, reference compound]",Inhibitory effect (percent) (JARID1B; [5]): 43.49%
–,47.7,–,−2.38,35.20,32.81,"CC(C)NCC(O)c1ccc(O)c(O)c1 (centres unmarked) [YU033874, ISOPROTERENOL HYDROCHLORIDE, reference compound]",–
–,–,–,−2.15,35.94,33.79,"S=c1[nH]cnc2nc[nH]c12 [YU033892, MERCAPTOPURINE, reference compound]",inhibition at 20 µM (JARID1B; [5]): 56%

SMILES,"Artifact signal: effect of the compound when it is incubated with bio-H3K4me2 peptide [1, 2]",inhibition at 20 µM (JARID1B; [3]) [%],Validation result of HTS active: effect of the compound in the JARID1B AlphaScreen demethylase assay (JARID1B; [4]),Artifact Signal (percent) [1] [%],Assay − Artifact Signal (percent) (JARID1B) [%],Assay Signal (percent) (JARID1B; validation of HTS actives) [%],also measured
"O=C(O[C@@H]1Cc2c(O)cc(O)cc2O[C@@H]1c1cc(O)c(O)c(O)c1-c1c([C@H]2Oc3cc(O)cc(O)c3C[C@H]2OC(=O)c2cc(O)c(O)c(O)c2)cc(O)c(O)c1O)c1cc(O)c(O)c(O)c1 (stereo in doubt) [YU155084, 2,2-BISEPIGALLO- CATECHIN DIGALLATE, reference compound]",91.60,102,98.89,–,–,–,–
"CC(C)=CCc1c2c(c3occ(-c4ccc(O)c(O)c4)c(=O)c3c1O)C=CC(C)(C)O2 [YU033628, POMIFERIN, reference compound]",13.55,–,6.60,–,–,–,Inhibitory effect (percent) (JARID1B; [3]): 68.25%
"C[n+]1cc2c3c(ccc2c2ccc4cc5c(cc4c21)OCO5)OCO3 [YU033662, SANGUINARINE SULFATE, reference compound]",–,–,–,9.21,58.64,67.85,Inhibitory effect (percent) (JARID1B; [3]): 86.66%
"NNC(=O)c1ccncc1 [YU033872, ISONIAZID, reference compound]",–,54.5,–,−6.34,51.63,45.10,–
